Measurements: paper PMC13266999, “Designing Antibiotics with Inherent Resistance to Efflux as a Strategy to Revive Discovery against Multidrug-Resistant Pathogens” (Journal of Medicinal Chemistry, 2026)
Values joined by “and” are separate entries in the source; they are usually repeats but may differ in a detail not shown here. Equal values may be shown once.

What was measured:
CYP2C9 = CYP2C9 (Homo sapiens, UniProt P11712); test: CYP inhibition; details: HLM, diclofenac substrate
Experimental: (§2) Cytochrome P450 inhibition was assessed in vitro using human recombinant enzymes in microsomal preparations. […] Enzyme activity was quantified by monitoring formation of substrate-specific metabolites, and percent inhibition was calculated relative to vehicle control.

SafetyScreen44 targets = test: SafetyScreen44 panel, remaining targets; assay type: binding, human; details: 10 μM
Experimental: (§1) Off-target pharmacology was evaluated using the Eurofins SafetyScreen44 in vitro panel. […] Binding assays were performed using radioligand displacement, and enzyme or uptake assays measured inhibition of control activity using validated detection methods (scintillation counting, fluorimetry or photometry). Responses were expressed as percent inhibition of control binding or activity. Based on Eurofins interpretation guidelines, effects ≥50% were considered significant, effects between 25% and 50% weak to moderate, and effects <25% were not considered biologically relevant.

WI38 = test: Toxicity in nontumor eukaryotic cell line; assay type: cell-based; details: 100 μM, the highest concentration tested
AR (h) = test: SafetyScreen44; parameters: species or system human; details: agonist radioligand, specific binding, 1.0E-05 M
Experimental: as §1

PDE3A (h) = biological target: T1, PDE3A (h) (Homo sapiens, UniProt Q14432); test: SafetyScreen44; assay type: biochemical; details: enzymatic activity, 1.0E-05 M
T1 construct: purchased Eurofins (SafetyScreen44)
Experimental: as §1

COX2(h) = biological target: T2, COX2(h) (Homo sapiens, UniProt P35354); test: SafetyScreen44; assay type: biochemical; details: enzymatic activity, 1.0E-05 M
T2 construct: purchased Eurofins (SafetyScreen44)
Experimental: as §1

[1] = Plasma protein binding (RED); assay type: in vitro ADME; details: pH 7.4
Experimental: Plasma protein binding was measured using a Rapid Equilibrium Dialysis (RED) assay. Test compounds and control compounds were added to plasma at 10 μM and dialyzed against phosphate-buffered saline (PBS, pH 7.4) for 4 h at 37 °C. […] The percentage of drug bound to plasma proteins was calculated by comparing the analyte response in the plasma compartment with that in the buffer compartment.

CYP2C19 = CYP2C19 (Homo sapiens, UniProt P33261); test: CYP inhibition; details: HLM, omeprazole substrate; for CYP2C19 inhibition: 10 μM
Experimental: as §2

dopamine transporter (h) = biological target: T3, dopamine transporter (h) (Homo sapiens, UniProt Q01959); test: SafetyScreen44; details: antagonist radioligand, specific binding, 1.0E-05 M
T3 construct: purchased Eurofins (SafetyScreen44)
Experimental: as §1

NMDA = test: SafetyScreen44; details: antagonist radioligand, specific binding, 1.0E-05 M
Experimental: as §1

CB1 (h) = biological target: T4, CB1 (h) (Homo sapiens, UniProt P21554); test: SafetyScreen44; details: agonist radioligand, specific binding, 1.0E-05 M
T4 construct: purchased Eurofins (SafetyScreen44 panel) assay 36
Experimental: as §1

5-HT2B (h) = biological target: T5, 5-HT2B (h) (Homo sapiens, UniProt P41595); test: SafetyScreen44; details: agonist radioligand, specific binding, 1.0E-05 M
T5 construct: purchased Eurofins (SafetyScreen44)
Experimental: as §1

ETA (h) = biological target: T6, ETA (h) (Homo sapiens, UniProt P25101); test: SafetyScreen44; details: agonist radioligand, specific binding, 1.0E-05 M
T6 construct: purchased Eurofins (SafetyScreen44)
Experimental: as §1

CB2 (h) = biological target: T7, CB2 (h) (Homo sapiens, UniProt P34972); test: SafetyScreen44; details: agonist radioligand, specific binding, 1.0E-05 M
T7 construct: purchased Eurofins (SafetyScreen44)
Experimental: as §1

alpha 1A (h) = biological target: T8, alpha 1A (h) (Homo sapiens, UniProt P35348); test: SafetyScreen44; details: antagonist radioligand, specific binding, 1.0E-05 M
T8 construct: purchased Eurofins (SafetyScreen44)
Experimental: as §1

M2 (h) = biological target: T9, M2 (h) (Homo sapiens, UniProt P08172); test: SafetyScreen44; details: antagonist radioligand, specific binding, 1.0E-05 M
T9 construct: purchased Eurofins (SafetyScreen44)
Experimental: as §1

[2] = biological target: T10, norepinephrine transporter (h) (Homo sapiens, UniProt P23975); test: SafetyScreen44; details: antagonist radioligand, specific binding, 1.0E-05 M
T10 construct: purchased Eurofins (SafetyScreen44)
Experimental: as §1

BZD (central) = test: SafetyScreen44; details: agonist radioligand, specific binding, 1.0E-05 M
Experimental: as §1

M1 (h) = biological target: T11, M1 (h) (Homo sapiens, UniProt P11229); test: SafetyScreen44; details: antagonist radioligand, specific binding, 1.0E-05 M
T11 construct: purchased Eurofins (SafetyScreen44)
Experimental: as §1

H1 (h) = biological target: T12, H1 (h) (Homo sapiens, UniProt P35367); test: SafetyScreen44; details: antagonist radioligand, specific binding, 1.0E-05 M
T12 construct: purchased Eurofins (SafetyScreen44)
Experimental: as §1

D2S (h) = biological target: T13, D2S (h) (Homo sapiens, UniProt P14416); test: SafetyScreen44; details: agonist radioligand, specific binding, 1.0E-05 M
T13 construct: purchased Eurofins (SafetyScreen44)
Experimental: as §1

kappa (KOP) = biological target: T14, kappa (KOP) (Rattus norvegicus, UniProt P34975); test: SafetyScreen44; details: agonist radioligand, specific binding, 1.0E-05 M
T14 construct: purchased Eurofins (SafetyScreen44)
Experimental: as §1

CCK1 (CCKA) (h) = biological target: T15, CCK1 (CCKA) (h) (Homo sapiens, UniProt P32238); test: SafetyScreen44; details: agonist radioligand, specific binding, 1.0E-05 M
T15 construct: purchased Eurofins (SafetyScreen44)
Experimental: as §1

KV channel = test: SafetyScreen44; details: antagonist radioligand, specific binding, 1.0E-05 M
Experimental: as §1

alpha 2A (h) = biological target: T16, alpha 2A (h) (Homo sapiens, UniProt P08913); test: SafetyScreen44; details: antagonist radioligand, specific binding, 1.0E-05 M
T16 construct: purchased Eurofins (SafetyScreen44)
Experimental: as §1

5-HT3 (h) = biological target: T17, 5-HT3 (h) (Homo sapiens, UniProt P46098); test: SafetyScreen44; details: antagonist radioligand, specific binding, 1.0E-05 M
T17 construct: purchased Eurofins (SafetyScreen44)
Experimental: as §1

Na+ channel (site 2) = test: SafetyScreen44; details: antagonist radioligand, specific binding, 1.0E-05 M
Experimental: as §1

A2A (h) = biological target: T18, A2A (h) (Homo sapiens, UniProt P29274); test: SafetyScreen44; details: agonist radioligand, specific binding, 1.0E-05 M
T18 construct: purchased Eurofins (SafetyScreen44)
Experimental: as §1

H2 (h) = biological target: T19, H2 (h) (Homo sapiens, UniProt P25021); test: SafetyScreen44; details: antagonist radioligand, specific binding, 1.0E-05 M
T19 construct: purchased Eurofins (SafetyScreen44)
Experimental: as §1

M3 (h) = biological target: T20, M3 (h) (Homo sapiens, UniProt P20309); test: SafetyScreen44; details: antagonist radioligand, specific binding, 1.0E-05 M
T20 construct: purchased Eurofins (SafetyScreen44)
Experimental: as §1

beta 2 (h) = biological target: T21, beta 2 (h) (Homo sapiens, UniProt P07550); test: SafetyScreen44; details: antagonist radioligand, specific binding, 1.0E-05 M
T21 construct: purchased Eurofins (SafetyScreen44)
Experimental: as §1

GR (h) = biological target: T22, GR (h) (Homo sapiens, UniProt P04150); test: SafetyScreen44; details: agonist radioligand, specific binding, 1.0E-05 M
T22 construct: purchased Eurofins (SafetyScreen44)
Experimental: as §1

[3] = biological target: T23, N neuronal alpha 4beta 2 (h) (Homo sapiens, UniProt P17787+P43681); test: SafetyScreen44; details: agonist radioligand, specific binding, 1.0E-05 M
T23 construct: purchased Eurofins (SafetyScreen44)
Experimental: as §1

5-HT1B = biological target: T24, 5-HT1B (Rattus norvegicus, UniProt P28564); test: SafetyScreen44; details: antagonist radioligand, specific binding, 1.0E-05 M
T24 construct: purchased Eurofins (SafetyScreen44)
Experimental: as §1

[4] = tested on: Ca2+ channel (L, dihydropyridine site); test: SafetyScreen44; details: antagonist radioligand, specific binding, 1.0E-05 M
Experimental: as §1

mu (MOP) (h) = biological target: T25, mu (MOP) (h) (Homo sapiens, UniProt P35372); test: SafetyScreen44; details: agonist radioligand, specific binding, 1.0E-05 M
T25 construct: purchased Eurofins (SafetyScreen44)
Experimental: as §1

5-HT2A (h) = biological target: T26, 5-HT2A (h) (Homo sapiens, UniProt P28223); test: SafetyScreen44; details: agonist radioligand, specific binding, 1.0E-05 M
T26 construct: purchased Eurofins (SafetyScreen44)
Experimental: as §1

CYP2D6 = CYP2D6 (Homo sapiens, UniProt P10635); test: CYP inhibition; details: HLM, dextromethorphan substrate, 10 μM
Experimental: as §2

CYP1A = CYP1A (Homo sapiens, UniProt P05177); test: CYP inhibition; details: human liver microsomes, probe phenacetin, HLM, phenacetin substrate
Experimental: as §2

T18 sequence (P29274 whole entry): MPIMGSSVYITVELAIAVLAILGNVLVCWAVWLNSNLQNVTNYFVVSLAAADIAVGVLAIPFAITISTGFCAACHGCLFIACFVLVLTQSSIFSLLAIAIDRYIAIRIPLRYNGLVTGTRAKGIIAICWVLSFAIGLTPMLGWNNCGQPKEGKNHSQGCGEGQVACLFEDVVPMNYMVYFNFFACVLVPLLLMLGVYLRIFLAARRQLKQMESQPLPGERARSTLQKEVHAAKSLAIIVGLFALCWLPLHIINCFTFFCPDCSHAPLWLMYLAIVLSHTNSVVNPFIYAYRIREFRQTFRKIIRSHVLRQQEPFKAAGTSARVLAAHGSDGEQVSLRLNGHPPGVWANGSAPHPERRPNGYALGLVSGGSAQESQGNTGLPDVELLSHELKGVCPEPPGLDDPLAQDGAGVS
T14 sequence (P34975 whole entry): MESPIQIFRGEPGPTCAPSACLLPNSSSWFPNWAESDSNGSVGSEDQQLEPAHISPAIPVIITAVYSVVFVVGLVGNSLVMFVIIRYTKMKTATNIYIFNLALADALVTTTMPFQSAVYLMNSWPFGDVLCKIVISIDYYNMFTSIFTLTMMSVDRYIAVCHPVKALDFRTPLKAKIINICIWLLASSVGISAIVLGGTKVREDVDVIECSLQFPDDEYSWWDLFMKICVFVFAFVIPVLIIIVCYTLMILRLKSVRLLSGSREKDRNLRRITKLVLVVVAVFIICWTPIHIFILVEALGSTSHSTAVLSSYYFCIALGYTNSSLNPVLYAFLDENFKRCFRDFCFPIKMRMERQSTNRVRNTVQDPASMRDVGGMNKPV
CYP2C19, sequence (P33261 whole entry): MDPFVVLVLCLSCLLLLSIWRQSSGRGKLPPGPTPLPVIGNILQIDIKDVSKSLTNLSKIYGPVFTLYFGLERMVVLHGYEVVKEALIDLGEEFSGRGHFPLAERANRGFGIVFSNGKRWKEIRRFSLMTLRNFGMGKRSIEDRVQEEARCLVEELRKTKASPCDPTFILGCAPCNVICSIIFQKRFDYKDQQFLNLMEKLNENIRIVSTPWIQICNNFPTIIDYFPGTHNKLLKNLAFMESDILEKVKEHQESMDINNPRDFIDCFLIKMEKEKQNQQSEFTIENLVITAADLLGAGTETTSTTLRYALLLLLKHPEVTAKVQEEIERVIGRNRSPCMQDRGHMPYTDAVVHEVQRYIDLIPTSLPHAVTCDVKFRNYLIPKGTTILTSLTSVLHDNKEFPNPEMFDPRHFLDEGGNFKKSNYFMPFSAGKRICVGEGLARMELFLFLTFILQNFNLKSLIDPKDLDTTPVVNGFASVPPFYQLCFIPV
CYP2D6, sequence (P10635 whole entry): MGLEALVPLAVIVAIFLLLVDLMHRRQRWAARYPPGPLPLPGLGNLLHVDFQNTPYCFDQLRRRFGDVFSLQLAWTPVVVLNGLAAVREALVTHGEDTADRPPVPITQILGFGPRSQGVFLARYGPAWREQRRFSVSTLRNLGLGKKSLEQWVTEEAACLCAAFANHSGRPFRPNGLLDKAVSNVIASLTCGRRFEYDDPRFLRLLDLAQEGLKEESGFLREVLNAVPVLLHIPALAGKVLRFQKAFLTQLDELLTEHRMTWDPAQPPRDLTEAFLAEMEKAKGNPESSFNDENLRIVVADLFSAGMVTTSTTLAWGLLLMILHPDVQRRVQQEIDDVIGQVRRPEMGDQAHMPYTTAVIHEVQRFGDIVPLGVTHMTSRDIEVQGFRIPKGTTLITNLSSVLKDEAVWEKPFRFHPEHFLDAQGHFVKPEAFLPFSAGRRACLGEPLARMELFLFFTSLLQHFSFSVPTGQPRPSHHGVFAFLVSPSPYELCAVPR
T1 sequence (Q14432 whole entry): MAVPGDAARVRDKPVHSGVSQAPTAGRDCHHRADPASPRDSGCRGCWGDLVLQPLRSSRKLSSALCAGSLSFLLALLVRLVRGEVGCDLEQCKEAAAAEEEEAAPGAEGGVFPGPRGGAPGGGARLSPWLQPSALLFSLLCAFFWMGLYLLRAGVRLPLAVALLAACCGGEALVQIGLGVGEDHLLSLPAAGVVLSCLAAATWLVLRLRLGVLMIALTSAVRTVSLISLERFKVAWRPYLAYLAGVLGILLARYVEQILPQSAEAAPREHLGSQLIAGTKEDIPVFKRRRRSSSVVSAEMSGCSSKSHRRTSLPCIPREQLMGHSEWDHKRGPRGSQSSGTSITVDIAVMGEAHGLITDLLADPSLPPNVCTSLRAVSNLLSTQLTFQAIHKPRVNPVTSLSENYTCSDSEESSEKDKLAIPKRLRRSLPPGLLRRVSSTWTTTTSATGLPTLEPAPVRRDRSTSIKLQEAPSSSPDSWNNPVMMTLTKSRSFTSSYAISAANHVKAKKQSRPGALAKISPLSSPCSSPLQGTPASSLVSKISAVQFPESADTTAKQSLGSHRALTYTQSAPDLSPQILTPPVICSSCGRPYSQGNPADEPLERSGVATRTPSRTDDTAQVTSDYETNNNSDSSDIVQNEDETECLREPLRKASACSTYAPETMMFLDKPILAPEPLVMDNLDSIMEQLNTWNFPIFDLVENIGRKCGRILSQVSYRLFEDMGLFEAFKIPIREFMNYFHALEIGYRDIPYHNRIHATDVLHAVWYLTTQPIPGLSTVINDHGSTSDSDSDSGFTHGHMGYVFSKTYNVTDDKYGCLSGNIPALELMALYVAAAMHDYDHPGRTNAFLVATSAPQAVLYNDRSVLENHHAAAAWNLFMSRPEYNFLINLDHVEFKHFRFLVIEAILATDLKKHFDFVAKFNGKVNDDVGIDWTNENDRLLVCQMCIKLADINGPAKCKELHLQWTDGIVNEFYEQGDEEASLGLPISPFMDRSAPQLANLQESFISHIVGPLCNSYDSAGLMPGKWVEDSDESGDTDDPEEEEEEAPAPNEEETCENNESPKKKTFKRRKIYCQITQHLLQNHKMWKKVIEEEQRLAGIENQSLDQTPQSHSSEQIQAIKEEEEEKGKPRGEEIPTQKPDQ
T10 sequence (P23975 whole entry): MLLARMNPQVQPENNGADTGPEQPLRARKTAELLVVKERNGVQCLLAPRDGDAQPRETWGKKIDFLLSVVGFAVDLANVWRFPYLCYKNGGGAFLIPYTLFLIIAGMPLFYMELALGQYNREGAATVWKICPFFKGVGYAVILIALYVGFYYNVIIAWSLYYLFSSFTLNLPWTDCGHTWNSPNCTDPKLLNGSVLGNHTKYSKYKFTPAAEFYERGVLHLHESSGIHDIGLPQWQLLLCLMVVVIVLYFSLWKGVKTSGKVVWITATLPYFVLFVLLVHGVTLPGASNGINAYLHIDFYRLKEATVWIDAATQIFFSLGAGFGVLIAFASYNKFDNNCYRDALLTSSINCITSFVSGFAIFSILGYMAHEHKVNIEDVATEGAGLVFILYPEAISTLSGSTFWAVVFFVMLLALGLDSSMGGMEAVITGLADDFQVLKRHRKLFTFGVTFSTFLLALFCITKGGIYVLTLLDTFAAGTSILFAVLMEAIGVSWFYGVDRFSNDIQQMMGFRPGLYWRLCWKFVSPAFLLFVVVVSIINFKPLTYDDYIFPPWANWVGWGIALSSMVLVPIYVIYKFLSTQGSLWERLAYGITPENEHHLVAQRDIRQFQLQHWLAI
T11 sequence (P11229 whole entry): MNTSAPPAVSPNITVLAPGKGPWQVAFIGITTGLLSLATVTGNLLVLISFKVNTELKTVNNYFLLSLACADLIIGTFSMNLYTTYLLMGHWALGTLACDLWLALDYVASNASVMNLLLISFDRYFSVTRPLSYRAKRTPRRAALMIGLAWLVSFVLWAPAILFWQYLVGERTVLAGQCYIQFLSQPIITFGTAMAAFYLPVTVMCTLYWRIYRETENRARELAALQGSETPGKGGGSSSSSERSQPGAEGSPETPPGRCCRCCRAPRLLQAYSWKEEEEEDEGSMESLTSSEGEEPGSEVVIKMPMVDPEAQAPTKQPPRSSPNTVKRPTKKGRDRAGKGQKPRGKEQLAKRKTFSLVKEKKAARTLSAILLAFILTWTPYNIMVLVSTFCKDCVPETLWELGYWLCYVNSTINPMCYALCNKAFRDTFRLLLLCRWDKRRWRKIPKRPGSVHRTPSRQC
T6 sequence (P25101 21-427): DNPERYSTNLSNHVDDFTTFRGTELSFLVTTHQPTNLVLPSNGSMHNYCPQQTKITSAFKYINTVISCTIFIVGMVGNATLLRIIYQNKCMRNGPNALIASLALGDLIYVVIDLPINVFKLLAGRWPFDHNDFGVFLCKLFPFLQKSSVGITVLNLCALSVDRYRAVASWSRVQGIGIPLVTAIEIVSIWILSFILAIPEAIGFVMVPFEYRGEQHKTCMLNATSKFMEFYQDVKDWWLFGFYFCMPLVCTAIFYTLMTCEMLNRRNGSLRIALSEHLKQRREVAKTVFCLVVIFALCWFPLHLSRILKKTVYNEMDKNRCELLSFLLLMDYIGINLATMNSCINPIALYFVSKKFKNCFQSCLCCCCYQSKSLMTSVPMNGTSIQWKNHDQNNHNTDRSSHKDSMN
T7 sequence (P34972 whole entry): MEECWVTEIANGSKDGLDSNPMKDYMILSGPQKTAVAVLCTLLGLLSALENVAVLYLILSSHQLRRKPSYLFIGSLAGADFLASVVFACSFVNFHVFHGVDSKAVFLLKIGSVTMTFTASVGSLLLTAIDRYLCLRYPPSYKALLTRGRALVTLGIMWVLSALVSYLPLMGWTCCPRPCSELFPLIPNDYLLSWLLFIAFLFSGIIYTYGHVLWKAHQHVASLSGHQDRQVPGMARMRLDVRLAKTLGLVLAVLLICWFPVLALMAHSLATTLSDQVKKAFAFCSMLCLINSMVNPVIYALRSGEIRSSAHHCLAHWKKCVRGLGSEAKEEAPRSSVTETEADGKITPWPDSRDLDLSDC

Cc1cc(C)nc(N[C@@H]2CCN(c3c(F)cc4c(=O)c(C(=O)O)cn5c4c3OC[C@@H]5C)C2)n1 [Compound 50, (S)-10-((R)-3-((4,6-Dimethylpyrimidin-2-yl)amino)pyrrolidin-1-yl)-9-fluoro-3-methyl-7-oxo-2,3-dihydro-7H-[1,4]oxazino[2,3,4-ij]quinoline-6-carboxylic acid]
inhibition at 10 µM (CYP2C9; human, human liver microsomes, probe diclofenac, CYP2C9 inhibition): 16.8%
inhibition, all other / remaining targets (SafetyScreen44 targets): < 25%
toxicity in WI38 (WI38): nontoxic
% Inhibition (AR (h)): 3.169%
inhibition at 10 µM (PDE3A (h)): 12.2%
inhibition at 10 µM (COX2(h)): 25.9%
fraction unbound at 4 h, 10 μM [1]: 0.28
CYP2C19 inhibition (CYP2C19): < 10%
inhibition at 10 µM (CYP2C19; human, human liver microsomes, probe omeprazole, CYP2C19 inhibition): 9.87%
inhibition at 10 µM (dopamine transporter (h)): 22.6%
% Inhibition (NMDA): -5.137%
inhibition at 10 µM (CB1 (h)): -8.28%
inhibition at 10 µM (5-HT2B (h)): 9.78%
inhibition at 10 µM (ETA (h)): 0.266%
inhibition at 10 µM (CB2 (h)): 0.988%
inhibition at 10 µM (alpha 1A (h)): 6.96%
inhibition at 10 µM (M2 (h)): 62.8%
inhibition at 10 µM [2]: 2.06%
% Inhibition (BZD (central)): 22.3569%
inhibition at 10 µM (M1 (h)): 25.5%
inhibition at 10 µM (H1 (h)): 5.57%
inhibition at 10 µM (D2S (h)): -3.93%
inhibition at 10 µM (kappa (KOP)): 20.1%
inhibition at 10 µM (CCK1 (CCKA) (h)): -39.6%
% Inhibition (KV channel): 3.113%
inhibition at 10 µM (alpha 2A (h)): 23.5%
inhibition at 10 µM (5-HT3 (h)): 7.02%
% Inhibition (Na+ channel (site 2)): -10.2569%
% Inhibition (A2A (h)): 82.8099% and 82.8%
inhibition at 10 µM (H2 (h)): -9.63%
inhibition at 10 µM (M3 (h)): 3.56%
inhibition at 10 µM (beta 2 (h)): -4.15%
inhibition at 10 µM (GR (h)): 9.19%
inhibition at 10 µM [3]: 0.422%
inhibition at 10 µM (5-HT1B): 10.2%
% Inhibition [4]: -7.1517%
inhibition at 10 µM (mu (MOP) (h)): 0.499%
inhibition at 10 µM (5-HT2A (h)): 41.5%
CYP2D6 inhibition (CYP2D6): 3.804% and < 10%
inhibition at 10 µM (CYP1A): 16%

C[C@H]1COc2c(N3CC[C@@H](Nc4ncccn4)C3)c(F)cc3c(=O)c(C(=O)O)cn1c23 [Compound 46, (S)-9-Fluoro-3-methyl-7-oxo-10-((R)-3-(pyrimidin-2-ylamino)pyrrolidin-1-yl)-2,3-dihydro-7H-[1,4]oxazino[2,3,4-ij]quinoline-6-carboxylic acid]
CYP2C9 inhibition (CYP2C9; 10 μM): 12.8%
inhibition, all other / remaining targets (SafetyScreen44 targets): < 25%
toxicity in WI38 (WI38): nontoxic
% Inhibition (AR (h)): 4.241%
% Inhibition (PDE3A (h)): 7.502%
% Inhibition (COX2(h)): 8.111%
fraction unbound at 4 h, 10 μM [1]: 0.42
CYP2C19 inhibition (CYP2C19): 0.6%
% Inhibition (dopamine transporter (h)): 10.0257%
% Inhibition (NMDA): 12.6124%
% Inhibition (CB1 (h)): 1.857%
% Inhibition (5-HT2B (h)): 5.374%
% Inhibition (ETA (h)): -5.236%
% Inhibition (CB2 (h)): 0%
inhibition at 10 µM (alpha 1A (h)): 11.5%
% Inhibition (M2 (h)): 1.066%
% Inhibition [2]: -6.471%
% Inhibition (BZD (central)): -44.8289%
% Inhibition (M1 (h)): 3.129%
% Inhibition (H1 (h)): 5.564%
inhibition at 10 µM (D2S (h)): -7.81%
% Inhibition (kappa (KOP)): 27.3513% and 27.4%
% Inhibition (CCK1 (CCKA) (h)): -2.038%
% Inhibition (KV channel): -4.644%
inhibition at 10 µM (alpha 2A (h)): 4.48%
% Inhibition (5-HT3 (h)): -4.708%
% Inhibition (Na+ channel (site 2)): 23.6539%
% Inhibition (A2A (h)): 53.628% and 53.6%
% Inhibition (H2 (h)): -40.1709%
% Inhibition (M3 (h)): 2.273%
% Inhibition (beta 2 (h)): 11.3086%
% Inhibition (GR (h)): 3.456%
inhibition at 10 µM [3]: -41.8%
% Inhibition (5-HT1B): -16.7063%
% Inhibition [4]: 6.049%
% Inhibition (mu (MOP) (h)): 6.535%
% Inhibition (5-HT2A (h)): -8.881%
CYP2D6 inhibition (CYP2D6): 0.0%
inhibition at 10 µM (CYP1A): 9.6%
